Source: ChEMBL document CHEMBL4257566, “Design, synthesis and structure-based optimization of novel isoxazole-containing benzamide derivatives as FtsZ modulators” (Eur J Med Chem, 2018)
Converted amounts (≈) assume the structure as drawn.

test system: Staphylococcus aureus; experiment: Antibacterial activity against clinical isolate of penicillin-resistant Staphylococcus aureus after 24 hrs by broth microdilution based CLSI method; format: functional; settings: not given

| SMILES | MIC [µg/mL] |
| --- | --- |
| NC(=O)c1c(F)ccc(OCc2cc(-c3cccc(Cl)c3)no2)c1F | > 64 |
| NC(=O)c1c(F)ccc(OCc2cc(-c3ccc(Cl)cc3Cl)on2)c1F | > 64 |
| NC(=O)c1c(F)ccc(OCc2cc(-c3ccc(Br)cc3)no2)c1F | > 64 |
| COc1cc(-c2cc(COc3ccc(F)c(C(N)=O)c3F)on2)cc(OC)c1OC | > 64 |
| NC(=O)c1c(F)ccc(OCc2cc(-c3ccc(Cl)cc3)no2)c1F | > 64 |
| NC(=O)c1c(F)ccc(OCc2cc(-c3ccc4c(c3)OCO4)no2)c1F | > 64 |
| NC(=O)c1c(F)ccc(OCc2cc(-c3ccc(Cl)c(Cl)c3)no2)c1F | > 64 |
| CC(C)=Cc1cc(COc2ccc(F)c(C(N)=O)c2F)on1 | > 64 |

test system: Staphylococcus aureus; experiment: Antibacterial activity against Staphylococcus aureus ATCC 25923 after 24 hrs by broth microdilution based CLSI method; format: functional; settings: ATCC 25923, 24 h

| SMILES | MIC [µg/mL] |
| --- | --- |
| NC(=O)c1c(F)ccc(OCc2cc(-c3cccc(Cl)c3)no2)c1F | > 64 |
| NC(=O)c1c(F)ccc(OCc2cc(-c3ccc(Cl)cc3Cl)on2)c1F | > 64 |
| NC(=O)c1c(F)ccc(OCc2cc(-c3ccc(Br)cc3)no2)c1F | > 64 |
| COc1cc(-c2cc(COc3ccc(F)c(C(N)=O)c3F)on2)cc(OC)c1OC | > 64 |
| NC(=O)c1c(F)ccc(OCc2cc(-c3ccc(Cl)cc3)no2)c1F | > 64 |
| NC(=O)c1c(F)ccc(OCc2cc(-c3ccc4c(c3)OCO4)no2)c1F | > 64 |
| NC(=O)c1c(F)ccc(OCc2cc(-c3ccc(Cl)c(Cl)c3)no2)c1F | > 64 |
| CC(C)=Cc1cc(COc2ccc(F)c(C(N)=O)c2F)on1 | > 64 |

test system: Staphylococcus aureus; experiment: Antibacterial activity against methicillin-resistant Staphylococcus aureus ATCC 43300 after 24 hrs by broth microdilution based CLSI method; format: functional; settings: ATCC 43300, 24 h

| SMILES | MIC [µg/mL] |
| --- | --- |
| NC(=O)c1c(F)ccc(OCc2cc(-c3cccc(Cl)c3)no2)c1F | > 64 |
| NC(=O)c1c(F)ccc(OCc2cc(-c3ccc(Cl)cc3Cl)on2)c1F | > 64 |
| NC(=O)c1c(F)ccc(OCc2cc(-c3ccc(Br)cc3)no2)c1F | > 64 |
| COc1cc(-c2cc(COc3ccc(F)c(C(N)=O)c3F)on2)cc(OC)c1OC | > 64 |
| NC(=O)c1c(F)ccc(OCc2cc(-c3ccc(Cl)cc3)no2)c1F | > 64 |
| NC(=O)c1c(F)ccc(OCc2cc(-c3ccc4c(c3)OCO4)no2)c1F | > 64 |
| NC(=O)c1c(F)ccc(OCc2cc(-c3ccc(Cl)c(Cl)c3)no2)c1F | > 64 |
| CC(C)=Cc1cc(COc2ccc(F)c(C(N)=O)c2F)on1 | > 64 |

test system: Bacillus subtilis; experiment: Antibacterial activity against Bacillus subtilis ATCC 9372 after 24 hrs by broth microdilution based CLSI method; format: functional; settings: ATCC 9372, 24 h

| SMILES | MIC [µg/mL] |
| --- | --- |
| NC(=O)c1c(F)ccc(OCc2cc(-c3cccc(Cl)c3)no2)c1F | 8 (≈ 21.9 µM) |
| NC(=O)c1c(F)ccc(OCc2cc(-c3ccc(Cl)cc3Cl)on2)c1F | 0.5 (≈ 1.25 µM) |
| NC(=O)c1c(F)ccc(OCc2cc(-c3ccc(Br)cc3)no2)c1F | 1 (≈ 2.44 µM) |
| COc1cc(-c2cc(COc3ccc(F)c(C(N)=O)c3F)on2)cc(OC)c1OC | > 64 |
| NC(=O)c1c(F)ccc(OCc2cc(-c3ccc(Cl)cc3)no2)c1F | 4 (≈ 11 µM) |
| NC(=O)c1c(F)ccc(OCc2cc(-c3ccc4c(c3)OCO4)no2)c1F | 4 (≈ 10.7 µM) |
| NC(=O)c1c(F)ccc(OCc2cc(-c3ccc(Cl)c(Cl)c3)no2)c1F | 64 (≈ 160 µM) |
| CC(C)=Cc1cc(COc2ccc(F)c(C(N)=O)c2F)on1 | 32 (≈ 104 µM) |

test system: Escherichia coli; experiment: Antibacterial activity against Escherichia coli ATCC 25922 after 24 hrs by broth microdilution based CLSI method; format: functional; settings: ATCC 25922, 24 h

| SMILES | MIC [µg/mL] |
| --- | --- |
| NC(=O)c1c(F)ccc(OCc2cc(-c3cccc(Cl)c3)no2)c1F | > 64 |
| NC(=O)c1c(F)ccc(OCc2cc(-c3ccc(Cl)cc3Cl)on2)c1F | > 64 |
| NC(=O)c1c(F)ccc(OCc2cc(-c3ccc(Br)cc3)no2)c1F | > 64 |
| COc1cc(-c2cc(COc3ccc(F)c(C(N)=O)c3F)on2)cc(OC)c1OC | > 64 |
| NC(=O)c1c(F)ccc(OCc2cc(-c3ccc(Cl)cc3)no2)c1F | > 64 |
| NC(=O)c1c(F)ccc(OCc2cc(-c3ccc4c(c3)OCO4)no2)c1F | > 64 |
| NC(=O)c1c(F)ccc(OCc2cc(-c3ccc(Cl)c(Cl)c3)no2)c1F | > 64 |
| CC(C)=Cc1cc(COc2ccc(F)c(C(N)=O)c2F)on1 | > 64 |

test system: Pseudomonas aeruginosa; experiment: Antibacterial activity against Pseudomonas aeruginosa ATCC 27853 after 24 hrs by broth microdilution based CLSI method; format: functional; settings: ATCC 27853, 24 h

| SMILES | MIC [µg/mL] |
| --- | --- |
| NC(=O)c1c(F)ccc(OCc2cc(-c3cccc(Cl)c3)no2)c1F | > 64 |
| NC(=O)c1c(F)ccc(OCc2cc(-c3ccc(Cl)cc3Cl)on2)c1F | > 64 |
| NC(=O)c1c(F)ccc(OCc2cc(-c3ccc(Br)cc3)no2)c1F | > 64 |
| COc1cc(-c2cc(COc3ccc(F)c(C(N)=O)c3F)on2)cc(OC)c1OC | > 64 |
| NC(=O)c1c(F)ccc(OCc2cc(-c3ccc(Cl)cc3)no2)c1F | > 64 |
| NC(=O)c1c(F)ccc(OCc2cc(-c3ccc4c(c3)OCO4)no2)c1F | > 64 |
| NC(=O)c1c(F)ccc(OCc2cc(-c3ccc(Cl)c(Cl)c3)no2)c1F | > 64 |
| CC(C)=Cc1cc(COc2ccc(F)c(C(N)=O)c2F)on1 | > 64 |

test system: Bacillus pumilus; experiment: Antibacterial activity against Bacillus pumilus CMCC63202 after 24 hrs by broth microdilution based CLSI method; format: functional; settings: CMCC63202, 24 h

| SMILES | MIC [µg/mL] |
| --- | --- |
| NC(=O)c1c(F)ccc(OCc2cc(-c3cccc(Cl)c3)no2)c1F | > 64 |
| NC(=O)c1c(F)ccc(OCc2cc(-c3ccc(Cl)cc3Cl)on2)c1F | 8 (≈ 20 µM) |
| NC(=O)c1c(F)ccc(OCc2cc(-c3ccc(Br)cc3)no2)c1F | > 64 |
| COc1cc(-c2cc(COc3ccc(F)c(C(N)=O)c3F)on2)cc(OC)c1OC | > 64 |
| NC(=O)c1c(F)ccc(OCc2cc(-c3ccc(Cl)cc3)no2)c1F | > 64 |
| NC(=O)c1c(F)ccc(OCc2cc(-c3ccc4c(c3)OCO4)no2)c1F | > 64 |
| NC(=O)c1c(F)ccc(OCc2cc(-c3ccc(Cl)c(Cl)c3)no2)c1F | > 64 |
| CC(C)=Cc1cc(COc2ccc(F)c(C(N)=O)c2F)on1 | > 64 |
